Source: patent US20170196893A1, “TREATMENT OF INFLAMMATORY DEMYELINATING DISEASE WITH AGONISTS OF FARNESOID X RECEPTOR” (The Board of Trustees of the Leland Stanford Junior …, priority 2016, published 2017)

How the values were obtained:
Type in all cases: in vivo, mouse
[1] = tested on: splenocytes (CD4+ T cells, CD8+ T cells, CD19+ B cells); experiment: FACS analysis of splenocytes harvested from treated MOG35-55-immunized mice; conditions: eleven days oral dosing; for BTLA expression on CD4+ T cells: vehicle 2.87%; for PD1 expression on CD4+ T cells: vehicle 3.5%; for PD-L1 expression on CD4+ T cells: vehicle 8.32%; for BTLA expression on CD19+ B cells: vehicle 12.21%; for BTLA expression on CD8+ T cells: vehicle (WT) 0.78%; for PD1 expression on CD8+ T cells: vehicle (WT) 1.12%; for PD-L1 expression on CD8+ T cells: vehicle (WT) 5.63%; for CD3+CD8+ T cells: vehicle (WT) 6.75%; for CD3+CD4+ T cells: vehicle (WT) 8.34%; for PD1 expression on CD19+ B cells: vehicle (WT) 11.58%; for PD-L1 expression on CD19+ B cells: vehicle (WT) 12.21%; for CD19+B220+ B cells: vehicle (WT) 42.82%; for VLA-4 (CD29+CD49d+) expression on T cells: vehicle (WT) 44.12%; for VLA-4 (CD29+CD49d+) expression on B cells: vehicle (WT) 56.35%
Text: Flow cytometry Cells were stained according to standard protocols, run on a FACScan flow cytometer (BD Biosciences), and analysed with CellQuest software (BD Immunocytometry Systems). The antibody conjugates used were PerCPCy5.5 anti-CD3, FITC anti-CD4, PE anti-CD8, PE anti-B220, PerCp-Cy5.5 anti-B220, FITC anti-CD19, PE anti-PD1, PE anti-PD-L1, PE anti-BTLA, PE anti-CD29, and FITC anti-CD49d (BD Pharmingen & eBioscience)

[2] = tested on: experimental autoimmune encephalomyelitis (EAE); experiment: Adoptive transfer EAE with cells of treated donor mice; conditions: donor mice treated eleven days, cells restimulated 72 h with MOG35-55 and rIL-12; vs vehicle treated donors (FIG. 4D)
Procedure: Mice and EAE Induction. C57BL/6J and FXRKO (B6.129x1(FVB)-Nr1h4tm1Gonz/J, #0007214) female mice were purchased from the Jackson Laboratory. Animal experiments were approved by, and performed in compliance with, the National Institute of Health guidelines of the Institutional Animal Care and Use Committee at Stanford University. For induction of active and adoptive transfer of EAE, 8- to 12-week-old female mice were immunized subcutaneously with 100 μg of MOG35-55 emulsified in complete Freund's adjuvant (CFA), consisting of incomplete Freund's Adjuvant and 0.4 mg of heat inactivated Mycobacterium tuberculosis, strain H37 RA (Difco Laboratories). On days 0 and 2, mice were also injected intravenously or intraperitoneally with 400 ng pertussis toxin in 0.2 ml 1×PBS. Adoptive transfer requires harvesting lymph nodes and spleens ten days after immunization. Combined lymphocytes and splenocytes are cultured in bulk, at 5×10^7 cells/ml for seventy-two hours in the presence of MOG35-55 (20 μg/ml) and rIL-12 (10 ng/ml, R&D systems). Cells are harvested and washed twice before transfer of 3×10^7 cells in 0.2 ml 1×PBS into naive 6-7 week old female mice, intraperitoneally. Clinical disease was monitored daily using the following scoring system: 0, no disease; 1, limp tail; 2, hind limb weakness; 3, hind limb paralysis; 4, hind limb and forelimb paralysis; 5, death.

[3] = tested on: experimental autoimmune encephalomyelitis (EAE); experiment: Active EAE, clinical scores of mice with established EAE; conditions: 5 mg/kg daily oral, 6-ECDCA vs CDCA vs vehicle (FIG. 3B)
[4] = tested on: MOG35-55-specific lymphocytes; experiment: 72 h proliferation assay (3H-thymidine) of splenocytes/lymph node cells harvested from treated mice, restimulated with MOG35-55
Procedure: (§1) Proliferation and cytokine assays. Splenocytes and lymph nodes were harvested and stimulated with increasing concentrations of MOG35-55 for a total of 72 hours. For assessment of proliferation, 1 μCi of ^3H-thymidine was added to each well for the final 18-24 hours of culture, and incorporation of radioactivity was measured by using a Betaplate scintillation counter. Cytokine assays were performed on culture supernatants after 72 hours of culture by using the IL-2, IL-6, IFNgamma, and TNF BD OptEIA™ Mouse ELISA kits (BD Biosciences) or Mouse IL-17 DuoSet ELISA Development kit (R&D Systems).

splenocytes = experiment: Cytokine production (ELISA) by splenocytes harvested from treated mice, restimulated with MOG35-55; conditions: daily oral treatment of established EAE (FIG. 3D)
Procedure: as §1

[5] = Serum lipid panel analysis of treated MOG35-55-immunized mice fasted overnight; conditions: eleven days of oral dosing after EAE immunization, overnight fast (FIG. 4A)
Text: Serum Lipid Panel Analysis. Serum from mice fasted overnight was submitted to the Diagnostic Laboratory at Stanford University, Department of Comparative Medicine for a full lipid panel analysis.

SMILES | BTLA expression on CD4+ T cells [1] [%] | PD1 expression on CD4+ T cells [1] [%] | PD-L1 expression on CD4+ T cells [1] [%] | BTLA expression on CD19+ B cells [1] [%] | BTLA expression on CD8+ T cells [1] [%] | PD1 expression on CD8+ T cells [1] [%] | PD-L1 expression on CD8+ T cells [1] [%] | CD3+CD8+ T cells [1] [%] | CD3+CD4+ T cells [1] [%] | PD1 expression on CD19+ B cells [1] [%] | PD-L1 expression on CD19+ B cells [1] [%] | CD19+B220+ B cells [1] [%] | VLA-4 (CD29+CD49d+) expression on T cells [1] [%] | VLA-4 (CD29+CD49d+) expression on B cells [1] [%] | other results
CC[C@H]1[C@@H](O)[C@@H]2[C@H](CC[C@]3(C)[C@@H]([C@H](C)CCC(=O)O)CC[C@@H]23)[C@@]2(C)CC[C@@H](O)C[C@@H]12 [6-ECDCA, 6α-Ethyl-chenodeoxycholic acid] | 2.38 | 2.74 | 6.59 | 6.23 | 1.21 | 1.82 | 9.5 | 12.22 | 7.33 | 12.3 | 11.34 | 30.69 | 36.67 | 51.98 | –
C[C@H](CCC(=O)O)[C@H]1CC[C@H]2[C@@H]3[C@H](O)C[C@@H]4C[C@H](O)CC[C@]4(C)[C@H]3CC[C@]12C [CDCA, Chenodeoxycholic acid] | 2.77 | 2.64 | 8.43 | 6.76 | 1.92 | 1.63 | 12.3 | 12.92 | 7.89 | 9.58 | 3.79 | 36.07 | 33.78 | 49.16 | Clinical EAE scores of naive recipient mice [2]: significantly less severe disease; Clinical EAE score (average EAE disease grade) [3]: clinical disease was ameliorated; T cell recall responses to MOG35-55 ([4]; daily oral treatment of established EAE (FIG. 3C)): significantly suppressed; Recall responses of MOG35-55-specific lymphocytes (proliferation) ([4]; eleven days of oral dosing, combined splenocytes and lymphocytes, vs vehicle (FIG. 4B)): greatly reduced; IFN-gamma production (splenocytes): decreased; IL-6 production (splenocytes): decreased; IL-17 production (splenocytes): not significantly altered; TNF production (splenocytes): decreased; Serum HDL levels [5]: decreased; Serum cholesterol levels [5]: decreased; Serum low-density lipoprotein (LDL) levels [5]: not significantly altered; Serum triglycerides [5]: not significantly altered
